# Source: ChEMBL document CHEMBL4340508, “Synthesis and evaluation of tetrahydroisoquinoline-benzimidazole hybrids as multifunctional agents for the treatment of Alzheimer's disease” (Eur J Med Chem, 2019)
# Calls of active or inactive are those of the source. The calls are words filed in the database; no cut-off is given here.
# Tested on: HT-22
# Experiment: Neuroprotective activity against glutamate-induced intracellular oxidative stress in mouse HT22 cells assessed as increase in GSH level at 5 uM measured after 12 hrs relative to control
# Type: functional, cell-based
# Settings: not given
row,Structure (SMILES),Activity
1,COc1ccc2nc(-c3cccc(N4CCc5ccccc5C4)n3)[nH]c2c1,Active

# Tested on: HT-22
# Experiment: Neuroprotective activity against glutamate-induced cytotoxicity in mouse HT22 cells assessed as cell viability at 5 uM measured after 24 hrs by MTT assay (reference value: 30%)
# Type: functional
# Settings: HT-22, 24 h, read-out: Activity
row,Structure (SMILES),viability at 5 µM [%]
1,FC(F)(F)Oc1ccc2nc(-c3cccc(N4CCc5ccccc5C4)n3)[nH]c2c1,62.1
2,c1cc(-c2nc3ccccc3[nH]2)nc(N2CCc3ccccc3C2)c1,80.3
3,COc1ccc2nc(-c3cccc(N4CCc5ccccc5C4)n3)[nH]c2c1,91.8
4,Nc1cccc2nc(-c3cccc(N4CCc5ccccc5C4)c3)[nH]c12,94.9
5,Oc1ccc2nc(-c3cccc(N4CCc5ccccc5C4)n3)[nH]c2c1,98.8
6,Fc1ccc2c(c1)CCN(c1cccc(-c3nc4ccc(F)cc4[nH]3)n1)C2,71.1
7,COc1ccc2c(c1)CCN(c1cccc(-c3nc4ccc(OC)cc4[nH]3)c1)C2,93.1
8,Fc1ccc2nc(-c3cccc(N4CCc5ccccc5C4)n3)[nH]c2c1,67.8
9,Fc1cc2[nH]c(-c3cccc(N4CCc5ccccc5C4)c3)nc2cc1Cl,48.9
10,Clc1ccc2nc(-c3cccc(N4CCc5ccccc5C4)c3)[nH]c2c1,67.6

# Biological target: Beta-secretase 1 (Homo sapiens, UniProt P56817)
# Sequence (P56817 whole entry): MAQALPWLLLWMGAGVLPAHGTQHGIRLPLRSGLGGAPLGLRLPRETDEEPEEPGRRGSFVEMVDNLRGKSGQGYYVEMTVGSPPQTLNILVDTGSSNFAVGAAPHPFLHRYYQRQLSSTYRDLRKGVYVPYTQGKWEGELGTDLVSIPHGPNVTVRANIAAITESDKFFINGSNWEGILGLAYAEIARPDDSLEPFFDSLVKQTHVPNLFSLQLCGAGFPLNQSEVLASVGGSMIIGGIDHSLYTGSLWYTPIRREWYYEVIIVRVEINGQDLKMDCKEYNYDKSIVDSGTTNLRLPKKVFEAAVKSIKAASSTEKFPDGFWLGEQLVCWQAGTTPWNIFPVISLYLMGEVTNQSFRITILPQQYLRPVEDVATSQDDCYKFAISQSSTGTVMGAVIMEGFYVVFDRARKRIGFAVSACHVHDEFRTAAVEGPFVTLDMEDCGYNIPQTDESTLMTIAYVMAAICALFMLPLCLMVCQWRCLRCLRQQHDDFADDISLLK
# Experiment: Inhibition of recombinant human BACE1 preincubated with enzyme for 20 mins followed by addition of Rh-EVNLDAEFK-Quencher as substrate measured after 60 mins by FRET assay
# Settings: not given
row,Structure (SMILES),IC50 [µM]
1,FC(F)(F)Oc1ccc2nc(-c3cccc(N4CCc5ccccc5C4)n3)[nH]c2c1,1.1
2,FC(F)(F)c1ccc2nc(-c3cccc(N4CCc5ccccc5C4)n3)[nH]c2c1,3.6
3,Clc1ccc2nc(-c3cccc(N4CCc5ccccc5C4)c3)[nH]c2c1,1.3
4,Clc1ccc2nc(-c3cccc(N4CCc5ccccc5C4)n3)[nH]c2c1,1.8

# Tested on: BV-2
# Experiment: Neuroprotective activity against glutamate-induced cell damage in […] assessed as change in cell morphology at 5 uM measured after 24 hrs
# Type: functional, cell-based
# Settings: not given
row,Structure (SMILES),Activity
1,COc1ccc2nc(-c3cccc(N4CCc5ccccc5C4)n3)[nH]c2c1,Active

# Tested on: HT-22
# Experiment: Neuroprotective activity against glutamate-induced intracellular oxidative stress in mouse HT22 cells assessed as inhibition of ROS production at 5 uM measured after 12 hrs by DCFH-DA probe based fluorescence method relative to control
# Type: functional, cell-based
# Settings: not given
row,Structure (SMILES),inhibition
1,COc1ccc2nc(-c3cccc(N4CCc5ccccc5C4)n3)[nH]c2c1,Active

# Tested on: BV-2
# Experiment: Antineuroinflammatory activity in mouse BV2 cells assessed as decrease in LPS-induced IL-1beta expression incubated for 30 mins followed by LPS stimulation for 12 hrs by qPCR method
# Type: functional, cell-based
# Settings: not given
row,Structure (SMILES),Activity
1,COc1ccc2nc(-c3cccc(N4CCc5ccccc5C4)n3)[nH]c2c1,Dose-dependent effect

# Tested on: BV-2
# Experiment: Antineuroinflammatory activity in mouse BV2 cells assessed as inhibition of LPS-induced nitric oxide production pretreated for 30 mins followed by LPS-stimulation for 24 hrs by Griess assay
# Type: functional, cell-based
# Settings: not given
row,Structure (SMILES),IC50 [µM]
1,COc1ccc2c(c1)CCN(c1cccc(-c3nc4ccc(OC)cc4[nH]3)n1)C2,> 10
2,Clc1cc2nc(-c3cccc(N4CCc5ccccc5C4)c3)[nH]c2cc1Cl,7.93
3,FC(F)(F)Oc1ccc2nc(-c3cccc(N4CCc5ccccc5C4)n3)[nH]c2c1,9.74
4,FC(F)(F)c1ccc2nc(-c3cccc(N4CCc5ccccc5C4)c3)[nH]c2c1,7.72
5,c1cc(-c2nc3ccccc3[nH]2)cc(N2CCc3ccccc3C2)c1,6.08
6,Cc1ccc2nc(-c3cccc(N4CCc5ccccc5C4)c3)[nH]c2c1,5.7
7,c1cc(-c2nc3ccccc3[nH]2)nc(N2CCc3ccccc3C2)c1,7.33
8,COc1ccc2nc(-c3cccc(N4CCc5ccccc5C4)n3)[nH]c2c1,5.07
9,Nc1cccc2nc(-c3cccc(N4CCc5ccccc5C4)c3)[nH]c12,> 10
10,Oc1ccc2nc(-c3cccc(N4CCc5ccccc5C4)n3)[nH]c2c1,3.8
11,Fc1ccc2c(c1)CCN(c1cccc(-c3nc4ccc(F)cc4[nH]3)n1)C2,6.43
12,Fc1ccc2nc(-c3cccc(N4CCc5ccccc5C4)c3)[nH]c2c1,5.42
13,Fc1cc2nc(-c3cccc(N4CCc5ccccc5C4)n3)[nH]c2cc1F,6.58
14,COc1ccc2nc(-c3cccc(N4CCc5ccccc5C4)c3)[nH]c2c1,8.28
15,Oc1ccc2nc(-c3cccc(N4CCc5ccccc5C4)c3)[nH]c2c1,5.95
16,FC(F)(F)c1ccc2nc(-c3cccc(N4CCc5ccccc5C4)n3)[nH]c2c1,9.33
17,CC(C)(C)c1ccc2nc(-c3cccc(N4CCc5ccccc5C4)n3)[nH]c2c1,> 10
18,COc1ccc2c(c1)CCN(c1cccc(-c3nc4ccc(OC)cc4[nH]3)c1)C2,> 10
19,Fc1ccc2nc(-c3cccc(N4CCc5ccccc5C4)n3)[nH]c2c1,5.7
20,Fc1cc2[nH]c(-c3cccc(N4CCc5ccccc5C4)c3)nc2cc1Cl,> 10
21,Clc1ccc2nc(-c3cccc(N4CCc5ccccc5C4)c3)[nH]c2c1,> 10
22,Clc1ccc2nc(-c3cccc(N4CCc5ccccc5C4)n3)[nH]c2c1,6.94

# Biological target: Acetylcholinesterase (Homo sapiens) (UniProt P22303)
# Sequence (P22303 whole entry): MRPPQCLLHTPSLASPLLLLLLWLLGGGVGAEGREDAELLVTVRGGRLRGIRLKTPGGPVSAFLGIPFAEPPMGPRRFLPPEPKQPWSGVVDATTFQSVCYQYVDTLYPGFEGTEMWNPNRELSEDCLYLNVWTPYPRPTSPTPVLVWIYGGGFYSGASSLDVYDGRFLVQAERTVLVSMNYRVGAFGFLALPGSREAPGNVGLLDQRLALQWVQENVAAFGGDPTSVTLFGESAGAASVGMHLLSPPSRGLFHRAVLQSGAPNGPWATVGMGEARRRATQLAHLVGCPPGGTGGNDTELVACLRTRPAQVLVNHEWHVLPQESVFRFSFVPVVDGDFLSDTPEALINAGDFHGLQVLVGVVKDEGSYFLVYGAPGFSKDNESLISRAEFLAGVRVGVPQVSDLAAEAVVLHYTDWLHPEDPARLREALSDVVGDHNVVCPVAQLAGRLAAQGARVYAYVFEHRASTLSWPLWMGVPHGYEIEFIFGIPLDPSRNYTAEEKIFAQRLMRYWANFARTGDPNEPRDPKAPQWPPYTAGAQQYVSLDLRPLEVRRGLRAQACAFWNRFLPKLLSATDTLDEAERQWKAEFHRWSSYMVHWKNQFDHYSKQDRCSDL
# Experiment: Inhibition of human erythrocyte AChE at 10 uM using acetylthiocholine chloride as substrate preincubated for 15 mins followed by substrate addition and measured at 1 min time interval by Ellman's method relative to control
# Settings: not given
row,Structure (SMILES),inhibition [%]
1,COc1ccc2c(c1)CCN(c1cccc(-c3nc4ccc(OC)cc4[nH]3)n1)C2,4.7
2,Clc1cc2nc(-c3cccc(N4CCc5ccccc5C4)c3)[nH]c2cc1Cl,16.2
3,FC(F)(F)Oc1ccc2nc(-c3cccc(N4CCc5ccccc5C4)n3)[nH]c2c1,7.6
4,FC(F)(F)c1ccc2nc(-c3cccc(N4CCc5ccccc5C4)c3)[nH]c2c1,11.9
5,c1cc(-c2nc3ccccc3[nH]2)cc(N2CCc3ccccc3C2)c1,6.3
6,Cc1ccc2nc(-c3cccc(N4CCc5ccccc5C4)c3)[nH]c2c1,5
7,c1cc(-c2nc3ccccc3[nH]2)nc(N2CCc3ccccc3C2)c1,10.1
8,COc1ccc2nc(-c3cccc(N4CCc5ccccc5C4)n3)[nH]c2c1,4.5
9,Nc1cccc2nc(-c3cccc(N4CCc5ccccc5C4)c3)[nH]c12,4.8
10,Oc1ccc2nc(-c3cccc(N4CCc5ccccc5C4)n3)[nH]c2c1,7.5
11,Fc1ccc2c(c1)CCN(c1cccc(-c3nc4ccc(F)cc4[nH]3)n1)C2,19.9
12,Fc1ccc2nc(-c3cccc(N4CCc5ccccc5C4)c3)[nH]c2c1,9.5
13,Fc1cc2nc(-c3cccc(N4CCc5ccccc5C4)n3)[nH]c2cc1F,7.2
14,COc1ccc2nc(-c3cccc(N4CCc5ccccc5C4)c3)[nH]c2c1,10.4
15,Oc1ccc2nc(-c3cccc(N4CCc5ccccc5C4)c3)[nH]c2c1,11.2
16,FC(F)(F)c1ccc2nc(-c3cccc(N4CCc5ccccc5C4)n3)[nH]c2c1,20.4
17,CC(C)(C)c1ccc2nc(-c3cccc(N4CCc5ccccc5C4)n3)[nH]c2c1,24.6
18,COc1ccc2c(c1)CCN(c1cccc(-c3nc4ccc(OC)cc4[nH]3)c1)C2,6
19,Fc1ccc2nc(-c3cccc(N4CCc5ccccc5C4)n3)[nH]c2c1,6.6
20,Fc1cc2[nH]c(-c3cccc(N4CCc5ccccc5C4)c3)nc2cc1Cl,10.9
21,Clc1ccc2nc(-c3cccc(N4CCc5ccccc5C4)c3)[nH]c2c1,3.4
22,Clc1ccc2nc(-c3cccc(N4CCc5ccccc5C4)n3)[nH]c2c1,24.3

# Biological target: Cholinesterase (Homo sapiens) (UniProt P06276)
# Sequence (P06276 whole entry): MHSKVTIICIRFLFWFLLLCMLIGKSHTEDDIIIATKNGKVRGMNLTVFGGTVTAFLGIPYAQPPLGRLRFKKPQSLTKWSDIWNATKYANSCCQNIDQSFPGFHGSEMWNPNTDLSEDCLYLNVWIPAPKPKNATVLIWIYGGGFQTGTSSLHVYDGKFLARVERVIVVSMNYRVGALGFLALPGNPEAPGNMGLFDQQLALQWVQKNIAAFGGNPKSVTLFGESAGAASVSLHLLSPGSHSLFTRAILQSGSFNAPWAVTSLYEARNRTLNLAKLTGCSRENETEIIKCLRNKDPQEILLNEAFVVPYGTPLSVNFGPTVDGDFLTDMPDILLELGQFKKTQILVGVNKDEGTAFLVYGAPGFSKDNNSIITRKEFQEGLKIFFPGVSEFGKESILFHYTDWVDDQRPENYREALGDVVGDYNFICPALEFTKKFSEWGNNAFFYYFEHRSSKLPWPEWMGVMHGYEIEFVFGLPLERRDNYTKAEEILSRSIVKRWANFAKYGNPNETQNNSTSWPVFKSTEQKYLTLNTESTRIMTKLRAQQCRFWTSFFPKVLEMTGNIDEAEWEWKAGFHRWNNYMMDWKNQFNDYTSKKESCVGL
# Experiment: Inhibition of human serum BuChE at 10 uM using butyrylthiocholine chloride as substrate preincubated for 15 mins followed by substrate addition and measured at 1 min time interval by Ellman's method relative to control
# Settings: not given
row,Structure (SMILES),inhibition [%]
1,COc1ccc2c(c1)CCN(c1cccc(-c3nc4ccc(OC)cc4[nH]3)n1)C2,9.7
2,Clc1cc2nc(-c3cccc(N4CCc5ccccc5C4)c3)[nH]c2cc1Cl,3.7
3,FC(F)(F)Oc1ccc2nc(-c3cccc(N4CCc5ccccc5C4)n3)[nH]c2c1,11.7
4,FC(F)(F)c1ccc2nc(-c3cccc(N4CCc5ccccc5C4)c3)[nH]c2c1,11.3
5,c1cc(-c2nc3ccccc3[nH]2)cc(N2CCc3ccccc3C2)c1,18.3
6,Cc1ccc2nc(-c3cccc(N4CCc5ccccc5C4)c3)[nH]c2c1,20.7
7,c1cc(-c2nc3ccccc3[nH]2)nc(N2CCc3ccccc3C2)c1,23.2
8,COc1ccc2nc(-c3cccc(N4CCc5ccccc5C4)n3)[nH]c2c1,35.6
9,Nc1cccc2nc(-c3cccc(N4CCc5ccccc5C4)c3)[nH]c12,25.9
10,Oc1ccc2nc(-c3cccc(N4CCc5ccccc5C4)n3)[nH]c2c1,45.6
11,Fc1ccc2c(c1)CCN(c1cccc(-c3nc4ccc(F)cc4[nH]3)n1)C2,33.7
12,Fc1ccc2nc(-c3cccc(N4CCc5ccccc5C4)c3)[nH]c2c1,17.1
13,Fc1cc2nc(-c3cccc(N4CCc5ccccc5C4)n3)[nH]c2cc1F,8.9
14,COc1ccc2nc(-c3cccc(N4CCc5ccccc5C4)c3)[nH]c2c1,5.4
15,Oc1ccc2nc(-c3cccc(N4CCc5ccccc5C4)c3)[nH]c2c1,6.8
16,FC(F)(F)c1ccc2nc(-c3cccc(N4CCc5ccccc5C4)n3)[nH]c2c1,18.6
17,CC(C)(C)c1ccc2nc(-c3cccc(N4CCc5ccccc5C4)n3)[nH]c2c1,3.8
18,COc1ccc2c(c1)CCN(c1cccc(-c3nc4ccc(OC)cc4[nH]3)c1)C2,0.3
19,Fc1ccc2nc(-c3cccc(N4CCc5ccccc5C4)n3)[nH]c2c1,24.2
20,Fc1cc2[nH]c(-c3cccc(N4CCc5ccccc5C4)c3)nc2cc1Cl,0.5
21,Clc1ccc2nc(-c3cccc(N4CCc5ccccc5C4)c3)[nH]c2c1,27.6
22,Clc1ccc2nc(-c3cccc(N4CCc5ccccc5C4)n3)[nH]c2c1,19.8

# Tested on: BV-2
# Experiment: Antineuroinflammatory activity in mouse BV2 cells assessed as decrease in LPS-induced secretion of IL-1beta incubated for 30 mins followed by LPS stimulation for 16 hrs by ELISA
# Type: functional, cell-based
# Settings: not given
row,Structure (SMILES),Activity
1,COc1ccc2nc(-c3cccc(N4CCc5ccccc5C4)n3)[nH]c2c1,Dose-dependent effect

# Tested on: BV-2
# Experiment: Antineuroinflammatory activity in mouse BV2 cells assessed as decrease in LPS-induced secretion of TNFalpha incubated for 30 mins followed by LPS stimulation for 16 hrs by ELISA
# Type: functional, cell-based
# Settings: not given
row,Structure (SMILES),Activity
1,COc1ccc2nc(-c3cccc(N4CCc5ccccc5C4)n3)[nH]c2c1,Dose-dependent effect

# Tested on: not listed separately
# Experiment: Permeability of the compound in PBS/EtOH at 100 ug/ml after 10 hrs by PAMPA-BBB assay
# Type: ADME
# Settings: read-out: permeability
row,Structure (SMILES),"Papp at 10 h, 100 ug/ml [×10⁻⁶ cm/s]"
1,COc1ccc2c(c1)CCN(c1cccc(-c3nc4ccc(OC)cc4[nH]3)n1)C2,11.5
2,Clc1cc2nc(-c3cccc(N4CCc5ccccc5C4)c3)[nH]c2cc1Cl,9.9
3,FC(F)(F)Oc1ccc2nc(-c3cccc(N4CCc5ccccc5C4)n3)[nH]c2c1,10
4,FC(F)(F)c1ccc2nc(-c3cccc(N4CCc5ccccc5C4)c3)[nH]c2c1,8.7
5,c1cc(-c2nc3ccccc3[nH]2)cc(N2CCc3ccccc3C2)c1,8.5
6,Cc1ccc2nc(-c3cccc(N4CCc5ccccc5C4)c3)[nH]c2c1,9.6
7,c1cc(-c2nc3ccccc3[nH]2)nc(N2CCc3ccccc3C2)c1,15.9
8,COc1ccc2nc(-c3cccc(N4CCc5ccccc5C4)n3)[nH]c2c1,16.8
9,Nc1cccc2nc(-c3cccc(N4CCc5ccccc5C4)c3)[nH]c12,13
10,Oc1ccc2nc(-c3cccc(N4CCc5ccccc5C4)n3)[nH]c2c1,13.8
11,Fc1ccc2c(c1)CCN(c1cccc(-c3nc4ccc(F)cc4[nH]3)n1)C2,14
12,Fc1ccc2nc(-c3cccc(N4CCc5ccccc5C4)c3)[nH]c2c1,12.6
13,Fc1cc2nc(-c3cccc(N4CCc5ccccc5C4)n3)[nH]c2cc1F,13.9
14,COc1ccc2nc(-c3cccc(N4CCc5ccccc5C4)c3)[nH]c2c1,5.6
15,Oc1ccc2nc(-c3cccc(N4CCc5ccccc5C4)c3)[nH]c2c1,8.6
16,FC(F)(F)c1ccc2nc(-c3cccc(N4CCc5ccccc5C4)n3)[nH]c2c1,5.4
17,COc1ccc2c(c1)CCN(c1cccc(-c3nc4ccc(OC)cc4[nH]3)c1)C2,7.6
18,Fc1ccc2nc(-c3cccc(N4CCc5ccccc5C4)n3)[nH]c2c1,14.5
19,Fc1cc2[nH]c(-c3cccc(N4CCc5ccccc5C4)c3)nc2cc1Cl,10.1
20,Clc1ccc2nc(-c3cccc(N4CCc5ccccc5C4)c3)[nH]c2c1,4.9
21,Clc1ccc2nc(-c3cccc(N4CCc5ccccc5C4)n3)[nH]c2c1,16.7

# Tested on: BV-2
# Experiment: Antineuroinflammatory activity in mouse BV2 cells assessed as decrease in LPS-induced TNFalpha expression incubated for 30 mins followed by LPS stimulation for 12 hrs by qPCR method
# Type: functional, cell-based
# Settings: not given
row,Structure (SMILES),Activity
1,COc1ccc2nc(-c3cccc(N4CCc5ccccc5C4)n3)[nH]c2c1,Dose-dependent effect

# Tested on: BV-2
# Experiment: Antineuroinflammatory activity in mouse BV2 cells assessed as decrease in LPS-induced iNOS expression incubated for 30 mins followed by LPS stimulation for 16 hrs by Western blot analysis
# Type: functional, cell-based
# Settings: not given
row,Structure (SMILES),Activity
1,COc1ccc2nc(-c3cccc(N4CCc5ccccc5C4)n3)[nH]c2c1,Dose-dependent effect

# Tested on: BV-2
# Experiment: Antineuroinflammatory activity in mouse BV2 cells assessed as decrease in LPS-induced iNOS mRNA expression incubated for 30 mins followed by LPS stimulation for 12 hrs by qPCR method
# Type: functional, cell-based
# Settings: not given
row,Structure (SMILES),Activity
1,COc1ccc2nc(-c3cccc(N4CCc5ccccc5C4)n3)[nH]c2c1,Dose-dependent effect
